Results taken from ChEMBL document CHEMBL1201862, “PubChem BioAssay data set” (2004).
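In this assay, cells in 96-well plates receive the compound at five concentrations for 48 hours. Endpoints are linearly interpolated between the surrounding concentrations. The concentration for 50% growth inhibition is given as GI50.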 The source made the active and inactive calls. Cut-off read from the data, not from the text of the source: active = GI50 up to about 1.1 µM and inactive = higher.

Columns and labels:
Assay in all cases: inhibition of tumour cell growth, NCI panel, 48 h
OVCAR-3 = tested on: OVCAR-3
NCI/ADR-RES = tested on: NCI/ADR-RES
RPMI-8226 = tested on: RPMI-8226
K562 = tested on: K562
NCI-H226 = tested on: NCI-H226
HCT-116 = tested on: HCT-116
CCRF-CEM = tested on: CCRF-CEM
SK-OV-3 = tested on: SK-OV-3
KM12 = tested on: KM12
CAKI-1 = tested on: CAKI-1
SNB-19 = tested on: SNB-19
IGROV-1 = tested on: IGROV-1
SF-539 = tested on: SF-539
TK-10 = tested on: TK-10
SW-620 = tested on: SW-620
MOLT-4 = tested on: MOLT-4
Malme-3M = tested on: Malme-3M
HOP-92 = tested on: HOP-92
UACC-257 = tested on: UACC-257
786-0 = tested on: 786-0

Measured: GI50

COc1cc(N/N=C/C#N)cc(OC)c1OC
inactive: OVCAR-3 > 10 µM | NCI/ADR-RES > 10 µM | RPMI-8226 2.16 µM | K562 2.44 µM | NCI-H226 > 10 µM | HCT-116 > 10 µM | CCRF-CEM 3.28 µM | SK-OV-3 > 10 µM | KM12 > 10 µM | CAKI-1 4.07 µM | SNB-19 > 10 µM | IGROV-1 > 10 µM | SF-539 > 10 µM | TK-10 > 10 µM | SW-620 8.28 µM | MOLT-4 2.92 µM | Malme-3M 7.55 µM

COc1ccc(C23C(=O)c4ccccc4N2O[C@H]2C(=O)N(c4ccccc4)C(=O)[C@H]23)cc1 (stereo not given in full)
inactive: OVCAR-3 > 100 µM | RPMI-8226 > 100 µM | K562 > 100 µM | NCI-H226 > 100 µM | HCT-116 > 100 µM | CCRF-CEM > 100 µM | HOP-92 > 100 µM | UACC-257 > 100 µM | SK-OV-3 > 100 µM | KM12 > 100 µM | 786-0 > 100 µM | CAKI-1 > 100 µM | SNB-19 > 100 µM | IGROV-1 > 100 µM | SF-539 > 100 µM | TK-10 > 100 µM | SW-620 > 100 µM | MOLT-4 > 100 µM | Malme-3M > 100 µM

COC(=O)C1=C(C(=O)OC)C(N(C)C)C(C(=O)OC)=C(C(=O)OC)S1
inactive: OVCAR-3 > 100 µM | NCI/ADR-RES > 100 µM | RPMI-8226 > 100 µM | K562 > 100 µM | NCI-H226 > 100 µM | HCT-116 > 100 µM | UACC-257 > 100 µM | SK-OV-3 > 100 µM | KM12 > 100 µM | 786-0 > 100 µM | CAKI-1 > 100 µM | SNB-19 > 100 µM | TK-10 > 100 µM | SW-620 > 100 µM | MOLT-4 > 100 µM

O=C(O)c1cc2c3c(c1)[C@H]1C=CC[C@H]1CN3CC1CC=CC21 (stereo not given in full)
inactive: OVCAR-3 > 100 µM | RPMI-8226 > 100 µM | K562 > 100 µM | NCI-H226 > 100 µM | HCT-116 > 100 µM | CCRF-CEM > 100 µM | HOP-92 > 100 µM | UACC-257 > 100 µM | SK-OV-3 > 100 µM | KM12 > 100 µM | 786-0 > 100 µM | CAKI-1 > 100 µM | SNB-19 > 100 µM | IGROV-1 > 100 µM | SF-539 > 100 µM | TK-10 > 100 µM | SW-620 > 100 µM | MOLT-4 > 100 µM | Malme-3M > 100 µM
